Where two headings read alike, the source gives them in different places.
How the values were obtained:
JAK1 = target: T1, JAK1 (Homo sapiens, UniProt P23458); test: Biochemical JAK1 kinase assay (LanthaScreen); conditions: for Ki: read-out: JAK 1 (pKi) (converted)
T1 construct: GST; purchased Life Technologies
Method in brief: (§1)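 GST-JAK + GFP-STAT1 peptide + cpd, 1 h preinc RT; ATP start, 1% DMSO, 1 h RT; stop 10 mM EDTA + 2 nM Tb-anti-pSTAT1; 1 h; TR-FRET 520/495. % inhib vs DMSO/background → IC50 (4-PL) → pKi (Cheng-Prusoff).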

JAK2 = target: T2, JAK2 (Homo sapiens, UniProt O60674); test: Biochemical JAK2 kinase assay (LanthaScreen); conditions: for Ki: read-out: JAK 2 (pKi) (converted)
T2 construct: GST; purchased Life Technologies
T2 sequence (O60674 whole entry): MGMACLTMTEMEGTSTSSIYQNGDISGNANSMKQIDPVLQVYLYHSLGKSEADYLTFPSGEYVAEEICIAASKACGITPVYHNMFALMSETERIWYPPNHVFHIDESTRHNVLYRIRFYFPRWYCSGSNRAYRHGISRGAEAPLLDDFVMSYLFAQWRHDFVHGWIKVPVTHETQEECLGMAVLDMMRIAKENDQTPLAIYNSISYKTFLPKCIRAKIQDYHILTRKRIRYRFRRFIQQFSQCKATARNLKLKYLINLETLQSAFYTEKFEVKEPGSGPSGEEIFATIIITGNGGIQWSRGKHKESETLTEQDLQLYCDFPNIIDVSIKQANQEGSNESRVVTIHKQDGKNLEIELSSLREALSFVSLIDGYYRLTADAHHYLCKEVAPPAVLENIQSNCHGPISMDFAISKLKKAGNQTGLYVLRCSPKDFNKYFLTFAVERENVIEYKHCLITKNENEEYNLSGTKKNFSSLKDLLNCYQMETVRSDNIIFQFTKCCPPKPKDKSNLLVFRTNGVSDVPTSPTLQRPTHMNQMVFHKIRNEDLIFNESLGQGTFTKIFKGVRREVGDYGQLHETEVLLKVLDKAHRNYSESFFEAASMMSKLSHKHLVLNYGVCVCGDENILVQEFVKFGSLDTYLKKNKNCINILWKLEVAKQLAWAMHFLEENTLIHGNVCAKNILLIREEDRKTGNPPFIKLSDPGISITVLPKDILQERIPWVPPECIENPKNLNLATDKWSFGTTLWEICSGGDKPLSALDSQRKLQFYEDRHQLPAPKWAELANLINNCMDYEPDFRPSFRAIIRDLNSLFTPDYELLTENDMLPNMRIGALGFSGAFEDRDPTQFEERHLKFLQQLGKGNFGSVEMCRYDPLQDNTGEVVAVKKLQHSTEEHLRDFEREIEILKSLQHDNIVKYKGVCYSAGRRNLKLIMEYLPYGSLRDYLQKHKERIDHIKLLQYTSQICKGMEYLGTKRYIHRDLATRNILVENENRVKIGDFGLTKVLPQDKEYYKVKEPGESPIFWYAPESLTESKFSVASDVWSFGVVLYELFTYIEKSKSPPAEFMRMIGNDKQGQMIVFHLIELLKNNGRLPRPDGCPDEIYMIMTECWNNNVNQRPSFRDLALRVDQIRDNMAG
Method in brief: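 GST-tagged recombinant JAK2 pre-incubated 1 h at ambient temperature with compound and GFP-STAT1 peptide in HEPES pH 7.5/MgCl2 buffer, then ATP added for a 1 h reaction with 1% DMSO. TR-FRET read after EDTA and Tb-anti-pSTAT1 (pTyr701) addition; IC50 from 4-parameter fit, converted to pKi by Cheng-Prusoff.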

JAK3 = target: T3, JAK3 (Homo sapiens, UniProt P52333); test: Biochemical JAK3 kinase assay (LanthaScreen); parameters: GST; purchased Life Technologies; conditions: for Ki: read-out: JAK 3 (pKi) (converted)
T3 sequence (P52333 1-1124): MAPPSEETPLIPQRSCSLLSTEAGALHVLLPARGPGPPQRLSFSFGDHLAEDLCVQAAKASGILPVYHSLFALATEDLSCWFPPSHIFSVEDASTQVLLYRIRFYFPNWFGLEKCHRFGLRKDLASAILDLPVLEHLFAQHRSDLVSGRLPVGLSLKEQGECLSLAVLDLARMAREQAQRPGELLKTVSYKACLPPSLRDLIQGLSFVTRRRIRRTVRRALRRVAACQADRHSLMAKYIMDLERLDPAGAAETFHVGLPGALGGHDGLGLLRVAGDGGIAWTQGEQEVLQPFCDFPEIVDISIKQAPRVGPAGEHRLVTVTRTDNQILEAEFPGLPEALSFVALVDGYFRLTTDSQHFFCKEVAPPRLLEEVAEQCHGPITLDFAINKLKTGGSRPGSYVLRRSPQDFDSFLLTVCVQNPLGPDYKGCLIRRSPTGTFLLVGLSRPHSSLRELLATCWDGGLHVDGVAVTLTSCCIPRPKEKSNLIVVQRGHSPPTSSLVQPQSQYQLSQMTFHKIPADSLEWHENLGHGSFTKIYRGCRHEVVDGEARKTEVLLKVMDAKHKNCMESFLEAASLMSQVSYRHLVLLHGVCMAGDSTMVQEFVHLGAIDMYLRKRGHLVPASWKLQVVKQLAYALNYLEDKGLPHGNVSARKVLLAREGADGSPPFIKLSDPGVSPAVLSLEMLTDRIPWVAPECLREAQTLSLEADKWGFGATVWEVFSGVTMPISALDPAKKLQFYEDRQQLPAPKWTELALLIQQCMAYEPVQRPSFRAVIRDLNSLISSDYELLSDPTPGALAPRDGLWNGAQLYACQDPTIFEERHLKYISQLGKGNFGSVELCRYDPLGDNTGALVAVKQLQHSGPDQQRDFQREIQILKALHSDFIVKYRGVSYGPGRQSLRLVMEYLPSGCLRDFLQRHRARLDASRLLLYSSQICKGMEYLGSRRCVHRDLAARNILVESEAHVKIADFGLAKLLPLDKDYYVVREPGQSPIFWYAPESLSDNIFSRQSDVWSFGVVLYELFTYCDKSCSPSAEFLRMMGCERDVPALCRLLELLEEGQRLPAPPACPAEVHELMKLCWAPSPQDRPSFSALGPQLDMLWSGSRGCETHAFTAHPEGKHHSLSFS
Method in brief: as §1

[1] = system: IL-2 stimulated pSTAT5 in Tall-1 T cells; test: Cellular JAK3 potency assay: inhibition of IL-2 stimulated pSTAT5 in Tall-1 T cells; assay type: cell-based, human; conditions: for Tall-1 (pIC50): IL-2 stimulated pSTAT5, Tall-1 T cells; for IC50: Homo sapiens, read-out: Tall-1 (pIC50) (converted)
Method in brief: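 Tall-1 human T cells (45,000/well) in phenol red-free DMEM with 10% FBS were preincubated with compound 1 h at 37 °C, then stimulated with IL-2 (final 300 ng/ml) for 30 min. Lysate pSTAT5 read by AlphaLisa; IC50 from inhibition curves, reported as pIC50 (mean±SD).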

Tyk2 = target: T4, Tyk2 (Homo sapiens, UniProt P29597); test: Biochemical Tyk2 kinase assay (LanthaScreen); conditions: for Ki: read-out: Tyk 2 (pKi) (converted)
T4 construct: GST; purchased Life Technologies
T4 sequence (P29597 whole entry): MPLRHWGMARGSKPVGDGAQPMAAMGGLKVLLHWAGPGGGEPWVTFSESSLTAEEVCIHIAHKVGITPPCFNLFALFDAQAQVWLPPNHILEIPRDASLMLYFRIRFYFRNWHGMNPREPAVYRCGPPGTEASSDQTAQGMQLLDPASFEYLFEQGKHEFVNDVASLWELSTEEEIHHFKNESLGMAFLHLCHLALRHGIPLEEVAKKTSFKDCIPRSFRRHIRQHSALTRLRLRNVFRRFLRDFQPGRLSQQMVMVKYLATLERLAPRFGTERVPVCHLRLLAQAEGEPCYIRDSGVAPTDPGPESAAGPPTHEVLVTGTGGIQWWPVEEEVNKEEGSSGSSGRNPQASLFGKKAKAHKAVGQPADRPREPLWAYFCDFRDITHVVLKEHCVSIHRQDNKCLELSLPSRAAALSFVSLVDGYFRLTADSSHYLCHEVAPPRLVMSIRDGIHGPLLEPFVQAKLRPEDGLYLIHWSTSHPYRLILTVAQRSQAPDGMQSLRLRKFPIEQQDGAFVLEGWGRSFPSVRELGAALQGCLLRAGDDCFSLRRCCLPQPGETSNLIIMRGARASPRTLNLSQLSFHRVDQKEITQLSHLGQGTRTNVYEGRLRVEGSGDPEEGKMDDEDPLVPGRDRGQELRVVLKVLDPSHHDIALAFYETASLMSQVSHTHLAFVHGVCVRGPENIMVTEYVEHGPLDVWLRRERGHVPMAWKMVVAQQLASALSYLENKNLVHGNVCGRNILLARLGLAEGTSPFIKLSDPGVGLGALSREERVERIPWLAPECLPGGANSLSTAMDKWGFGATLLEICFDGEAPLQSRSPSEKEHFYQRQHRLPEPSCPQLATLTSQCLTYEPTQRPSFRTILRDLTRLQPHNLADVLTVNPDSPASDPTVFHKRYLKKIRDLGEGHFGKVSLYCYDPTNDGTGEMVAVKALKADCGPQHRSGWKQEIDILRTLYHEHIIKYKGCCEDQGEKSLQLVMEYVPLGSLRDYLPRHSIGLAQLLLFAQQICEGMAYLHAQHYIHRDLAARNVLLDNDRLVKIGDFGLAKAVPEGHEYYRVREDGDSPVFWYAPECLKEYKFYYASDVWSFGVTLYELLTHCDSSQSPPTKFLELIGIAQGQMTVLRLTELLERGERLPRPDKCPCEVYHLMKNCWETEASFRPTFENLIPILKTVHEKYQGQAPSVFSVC
Method in brief: as §1

[2] = selectivity JAK3 over JAK1, difference of pKi
[3] = selectivity: difference of pKi JAK3 and pKi JAK1
[4] = TALL-1, IL-2 stimulated pSTAT5 in Tall-1 T cells
[5] = TALL-1, IL-2 stimulated pSTAT5, Tall-1 T cells

T1 sequence (P23458 whole entry): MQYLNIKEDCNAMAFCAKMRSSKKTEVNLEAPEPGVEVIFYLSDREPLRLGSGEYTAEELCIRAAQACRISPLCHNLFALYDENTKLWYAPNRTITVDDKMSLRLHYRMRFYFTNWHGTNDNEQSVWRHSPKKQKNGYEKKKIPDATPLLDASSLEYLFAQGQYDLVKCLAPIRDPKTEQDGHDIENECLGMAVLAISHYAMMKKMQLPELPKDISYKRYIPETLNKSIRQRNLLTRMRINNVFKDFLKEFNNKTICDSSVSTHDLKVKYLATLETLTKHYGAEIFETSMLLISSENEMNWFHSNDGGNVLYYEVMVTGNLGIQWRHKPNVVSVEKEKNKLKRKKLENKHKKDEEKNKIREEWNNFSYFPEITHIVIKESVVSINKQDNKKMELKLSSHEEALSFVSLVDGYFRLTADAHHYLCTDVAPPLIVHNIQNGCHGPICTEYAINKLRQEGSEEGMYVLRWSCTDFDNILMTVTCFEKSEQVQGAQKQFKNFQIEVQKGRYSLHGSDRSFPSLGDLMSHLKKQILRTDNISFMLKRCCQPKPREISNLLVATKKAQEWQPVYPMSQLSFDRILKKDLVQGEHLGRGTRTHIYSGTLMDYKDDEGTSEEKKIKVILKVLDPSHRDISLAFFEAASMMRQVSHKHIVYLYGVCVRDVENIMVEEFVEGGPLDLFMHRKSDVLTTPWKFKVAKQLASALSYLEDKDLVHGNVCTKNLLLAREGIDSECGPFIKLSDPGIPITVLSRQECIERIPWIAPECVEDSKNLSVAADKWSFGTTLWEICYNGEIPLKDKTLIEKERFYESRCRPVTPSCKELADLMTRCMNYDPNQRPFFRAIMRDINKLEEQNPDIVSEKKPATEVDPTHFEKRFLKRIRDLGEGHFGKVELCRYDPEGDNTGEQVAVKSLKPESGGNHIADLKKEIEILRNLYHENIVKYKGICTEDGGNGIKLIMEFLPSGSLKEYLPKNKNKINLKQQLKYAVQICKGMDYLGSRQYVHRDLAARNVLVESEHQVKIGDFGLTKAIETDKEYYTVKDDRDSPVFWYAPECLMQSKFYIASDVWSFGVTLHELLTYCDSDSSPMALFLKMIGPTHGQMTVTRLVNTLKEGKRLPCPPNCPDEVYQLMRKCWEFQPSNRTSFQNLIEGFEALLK

Row | Structure (SMILES) | JAK 1 (pKi) (JAK1) | JAK 2 (pKi) (JAK2) | JAK 3 (pKi) (JAK3) | JAK3 (pKi)-JAK1 (pKi) (JAK3; [2]) | Tall-1 (pIC50) [1] | Tyk 2 (pKi) (Tyk2) | Ki (JAK1) [nM] | Ki (JAK2) [nM] | Ki (JAK3) [nM] | JAK3 (pKi)-JAK1 (pKi) (JAK3; [3]) | IC50 [1, 4] [nM] | Ki (Tyk2) [nM] | IC50 [1, 5] [nM]
1 | C=CC(=O)N1CCC[C@H](Oc2cc(-c3ccc(O)c(Cl)c3)nc3[nH]ncc23)C1 [Compound 8-14] | E (a pKi value of 7 or below (Ki of 100 nM or above)) | E (a pKi value of 7 or below (Ki of 100 nM or above)) | A (a pKi value≥10 (Ki≤0.1 nM)) | A (a value of 3 or above) | B (a pIC50 value between 6.7 (included) and 7.5 (IC50 between 200 nM and 32 nM)) | E (a pKi value of 7 or below (Ki of 100 nM or above)) | – | – | – | – | – | – | –
2 | C=CC(=O)N1C2CCC1CC(Oc1cc(-c3ccc(O)cc3)cc3[nH]ncc13)C2 (stereo not drawn) [Compound 9-1] | E (a pKi value of 7 or below (Ki of 100 nM or above)) | D (a pKi value between 7 and 8 (Ki between 100 nM and 10 nM)) | A (a pKi value≥10 (Ki≤0.1 nM)) | A (a value of 3 or above) | A (a pIC50 value≥7.5 (IC50≤32 nM)) | E (a pKi value of 7 or below (Ki of 100 nM or above)) | – | – | – | – | – | – | –
3 | C=CC(=O)N1C2CCC1CC(Oc1cc(-c3ccc(O)c(Cl)c3)cc3[nH]ncc13)C2 (stereo not drawn) [Compound 9-2] | E (a pKi value of 7 or below (Ki of 100 nM or above)) | E (a pKi value of 7 or below (Ki of 100 nM or above)) | B (a pKi value between 9 and 10 (Ki between 1 nM and 0.1 nM)) | A (a value of 3 or above) | A (a pIC50 value≥7.5 (IC50≤32 nM)) | E (a pKi value of 7 or below (Ki of 100 nM or above)) | – | – | – | – | – | – | –
4 | C=CC(=O)N1C2CCC1CC(Oc1cc(-c3ccc(O)c(F)c3)cc3[nH]ncc13)C2 (stereo not drawn) [Compound 9-4] | E (a pKi value of 7 or below (Ki of 100 nM or above)) | C (a pKi value between 8 and 9 (Ki between 10 nM and 1 nM)) | A (a pKi value≥10 (Ki≤0.1 nM)) | A (a value of 3 or above) | A (a pIC50 value≥7.5 (IC50≤32 nM)) | E (a pKi value of 7 or below (Ki of 100 nM or above)) | – | – | – | – | – | – | –
5 | C=CC(=O)N1C2CCC1CC(Nc1cc(-c3ccc(O)cc3)cc3[nH]ncc13)C2 (stereo not drawn) [Compound 9-9] | D (a pKi value between 7 and 8 (Ki between 100 nM and 10 nM)) | C (a pKi value between 8 and 9 (Ki between 10 nM and 1 nM)) | A (a pKi value≥10 (Ki≤0.1 nM)) | B (a value of 2.3 to 3) | A (a pIC50 value≥7.5 (IC50≤32 nM)) | D (a pKi value between 7 and 8 (Ki between 100 nM and 10 nM)) | – | – | – | – | – | – | –
6 | C=CC(=O)N1CC(COc2cc(-c3ccc(O)cc3)nc3[nH]ncc23)C1 [Compound 10, 1-(3-(((6-(4-hydroxyphenyl)-1H-pyrazolo[3,4-b]pyridin-4-yl)oxy)methyl)azetidin-1-yl)prop-2-en-1-one] | – | – | – | – | – | – | > 100 | > 100 | < 0.1 | A (a value of 3 or above) | 31.6 to 200 | > 100 | –
7 | C=CC(=O)N1C2CCC1CC(Oc1cc(-c3ccc(O)cc3)cc3[nH]ncc13)C2 (stereo not drawn) [Compound 10-2] | D (a pKi value between 7 and 8 (Ki between 100 nM and 10 nM)) | C (a pKi value between 8 and 9 (Ki between 10 nM and 1 nM)) | A (a pKi value≥10 (Ki≤0.1 nM)) | B (a value of 2.3 to 3) | A (a pIC50 value≥7.5 (IC50≤32 nM)) | D (a pKi value between 7 and 8 (Ki between 100 nM and 10 nM)) | – | – | – | – | – | – | –
8 | C=CC(=O)N1C2CCC1CC(Oc1cc(-c3ccc(O)c(Cl)c3)cc3[nH]ncc13)C2 (stereo not drawn) [Compound 10-4] | E (a pKi value of 7 or below (Ki of 100 nM or above)) | D (a pKi value between 7 and 8 (Ki between 100 nM and 10 nM)) | B (a pKi value between 9 and 10 (Ki between 1 nM and 0.1 nM)) | A (a value of 3 or above) | B (a pIC50 value between 6.7 (included) and 7.5 (IC50 between 200 nM and 32 nM)) | E (a pKi value of 7 or below (Ki of 100 nM or above)) | – | – | – | – | – | – | –
9 | C=CC(=O)N1C2CCC1CC(Nc1cc(-c3ccc(O)cc3)cc3[nH]ncc13)C2 (stereo not drawn) [Compound 10-7] | E (a pKi value of 7 or below (Ki of 100 nM or above)) | D (a pKi value between 7 and 8 (Ki between 100 nM and 10 nM)) | B (a pKi value between 9 and 10 (Ki between 1 nM and 0.1 nM)) | A (a value of 3 or above) | B (a pIC50 value between 6.7 (included) and 7.5 (IC50 between 200 nM and 32 nM)) | E (a pKi value of 7 or below (Ki of 100 nM or above)) | – | – | – | – | – | – | –
10 | CN(C)C/C=C/C(=O)N1CC(CN(C)c2cc(-c3ccc(O)cc3)cc3[nH]ncc23)C1 [Compound 11, (E)-4-(dimethylamino)-1-(3-(((6-(4-hydroxyphenyl)-1H-indazol-4-yl)(methyl)amino)methyl)azetidin-1-yl)but-2-en-1-one] | – | – | – | – | – | – | > 100 | > 100 | 0.1 to 1 | A (a value of 3 or above) | 31.6 to 200 | > 100 | –
11 | C=CC(=O)N1CC[C@H](Sc2cc(-c3ccc(O)cc3)cc3[nH]ncc23)C1 [Compound 12, (S)-1-(3-((6-(4-hydroxyphenyl)-1H-indazol-4-yl)thio)pyrrolidin-1-yl)prop-2-en-1-one] | – | – | – | – | – | – | > 100 | > 100 | 0.1 to 1 | B (a value of 2.3 to 3) | 31.6 to 200 | > 100 | –
12 | CN(C)C/C=C/C(=O)N1CC[C@H](Sc2cc(-c3ccc(O)cc3)cc3[nH]ncc23)C1 [Compound 12-1] | – | – | – | A (a value of 3 or above) | – | – | > 100 | 10 to 100 | 0.1 to 1 | – | – | > 100 | 31.6 to 200
13 | C=CC(=O)N1CCC(Sc2cc(-c3ccc(O)cc3)cc3[nH]ncc23)CC1 [Compound 12-4] | – | – | – | A (a value of 3 or above) | – | – | > 100 | > 100 | 0.1 to 1 | – | – | > 100 | 31.6 to 200
14 | C=CC(=O)N1CC[C@H](Nc2cc(-c3ccc(O)cc3)cc3[nH]ncc23)[C@H](C)C1 [Compound 12-16] | – | – | – | B (a value of 2.3 to 3) | – | – | 10 to 100 | 1 to 10 | 0.1 to 1 | – | – | > 100 | < 31.6
15 | C=CC(=O)N1CC[C@@H](Nc2cc(-c3ccc(O)cc3)cc3[nH]ncc23)[C@H](C)C1 [Compound 12-17] | – | – | – | B (a value of 2.3 to 3) | – | – | 10 to 100 | 1 to 10 | < 0.1 | – | – | > 100 | < 31.6
16 | C=CC(=O)N1CC[C@@H](COc2cc(-c3ccc(O)cc3)cc3[nH]ncc23)C1 [Compound 12-20] | E (a pKi value of 7 or below (Ki of 100 nM or above)) | D (a pKi value between 7 and 8 (Ki between 100 nM and 10 nM)) | B (a pKi value between 9 and 10 (Ki between 1 nM and 0.1 nM)) | A (a value of 3 or above) | A (a pIC50 value≥7.5 (IC50≤32 nM)) | E (a pKi value of 7 or below (Ki of 100 nM or above)) | – | – | – | – | – | – | –
